# Data as given in PMC11672137, “High-Affinity Lectin Ligands Enable the Detection of Pathogenic Pseudomonas aeruginosa Biofilms: Implications for Diagnostics and Therapy” (JACS Au, 2024).
# How the values were obtained:
# LecA = target: T1, LecA (Pseudomonas aeruginosa, UniProt Q05097); assay: Direct binding assay based on fluorescence polarization, titration with LecA
# T1 construct: made in house
# Experimental: The binding affinities of imaging probes 2–4 for LecA were determined using a direct binding assay based on fluorescence polarization (FP).[47]
# (A, C) Monovalent LecA imaging probes 2–4 based on phenyl β-D-galactoside (1) were titrated with LecA. […] (E) Xyloside-fluorescein conjugate (8) and azido fluorescein (9) served as negative controls in titrations with LecA and LecB, respectively. Averages and standard deviations were determined from at least three independent titrations of technical triplicates each.
# Direct binding affinity determination of LecA and LecB imaging probes was performed with direct titration of protein and imaging probes in TBS/Ca2+ buffer. Protein dilution series was prepared in 96 well plates and 10 µL of each dilution in triplicates were mixed with 10 µL of fluorescent compound (20 nM) in 384-well microtiter plates (Greiner Bio-One, Germany, cat no 781900). The plates were centrifuged (1 min, 500 g), sealed and incubated for 2 h in dark wet chamber under gentle shaking. Fluorescence was measured on a PheraStar FS plate reader (BMG Labtech GmbH, Germany) with excitation filters at 485 nm and emission filters at 535 nm. The data were analysed with MARS Data Analysis Software (BMG Labtech GmbH, Germany) to calculate Kd values.
# [1] = test system: P. aeruginosa PAO1 biofilm aggregates; assay: In vitro biofilm staining under static conditions (CLSM); assay type: cell-based, Pseudomonas aeruginosa; conditions: 10 μM probe
# Experimental: The ability of LecA- and LecB-targeting probes to image P. aeruginosa biofilms was evaluated in vitro. P. aeruginosa PAO1, constitutively expressing mCherry from plasmid pMP7605,[56] was cultivated in microtiter plates under shaking conditions to form biofilm aggregates, as reported previously.[43] Fluorescein-carbohydrate conjugates were added to the bacterial culture to reach a final concentration of 10 μM and biofilms were analyzed by confocal laser scanning microscopy (CLSM) under static conditions (Figures 2 and S4). […] To our surprise, the intended negative control xyloside 8 also stained the P. aeruginosa biofilms (Figures 2C and S4). In all cases, the green signal originating from the fluorescein conjugates was not homogeneously spread over the entire structure of the biofilm aggregates, but a certain heterogeneity was observed across biofilm regions as bright spots. Further, the intensity of staining varied between replicates (see the Supporting Information for individual experiments). […] Instead, only a very faint green shadow was detected for 9 indicating its suitability as a negative control. Thus, the observed biofilm staining with imaging probes 2, 3, 6, 7 and also xyloside 8 was carbohydrate dependent and while 2, 3 and 6, 7 are ligands of LecA and LecB, respectively, the molecular mechanism of xyloside 8 remains elusive.
# One representative image of stained aggregates is shown. […] Scale bar = 50 μm.
# P. aeruginosa PAO1 expressing the red fluorescent protein mCherry (pMP7605)23 was selected for this study. For this, P. aeruginosa PAO1 (DSM 19880, Braunschweig, Germany) was transformed with the mCherry plasmid (pMP7605).23 Bacteria were stored at -80 °C. For experimental use, bacteria were streaked on lysogeny broth (LB) agar (1% tryptone, 1% NaCl, 0,5% yeast extract, 1.3% agar) containing 60 µg/mL gentamicin (Gm) and incubated at 37 °C overnight. For liquid cultures, bacterial colonies were transferred from LB agar to 10 mL LB (1% tryptone, 1% NaCl, 0,5% yeast extract) containing 60 µg/mL Gm and incubated at 37 °C and 180 rpm overnight. For exponential growth, 10 mL of LB containing 60 µg/mL Gm were inoculated with P. aeruginosa PAO1 mCherry (pMP7605)23 using an overnight liquid culture […]
# In vitro biofilm staining under static conditions
# Biofilm staining experiments were performed in analogy to Wagner et al. with P. aeruginosa PAO1 pMP7605 (Figure S4).23,24 Bacterial overnight cultures were inoculated from single colonies in 5 mL LB supplemented with gentamicin (120 µg/mL) and grown at 37 °C and 180 rpm. The bacterial overnight cultures were then diluted to OD600 of 0.02 with LB and 500 µL of culture per well were transferred to 24-well plate (24CG, Art. No. 5231 or 24FC, Art. No. 3231). The biofilm was grown under shaking conditions (180 rpm) at 37 °C for 20–24 h. Biofilm aggregates were visualized using a confocal laser scanning microscope (Leica TCS Sp8 CLSM) using a 25× numerical-aperture water objective. Z-stacks (463 x 463 μm) were recorded every 2 μm for mCherry (ex.: 561 nm, red) and for fluorescein containing imaging compounds (ex.: 488 nm, green). […]
# Maximum Intensity Projections (contrast range automatically adjusted by Imaris). Only one staining experiment was carried out for imaging probes 4 and S26, all other fluorescein conjugates were analyzed in at least three independent experiments.
# [2] = test system: P. aeruginosa PAO1 biofilms; assay: In vitro biofilm staining under flow conditions, compound supplementation to the medium; assay type: cell-based, Pseudomonas aeruginosa; conditions: for Biofilm staining after accumulation: 500 nM in medium, 4 h, fluorescence microscope; for Biofilm staining by CLSM after accumulation: 500 nM, 4 h accumulation, without washing
# Experimental: P. aeruginosa biofilms were grown under flow conditions and observed by fluorescence microscopy in analogy to Ghanbari et al.[66] To this end, P. aeruginosa PAO1 expressing the red fluorescent protein mCherry[56] was diluted to an OD600 nm of 0.1 and injected into the microfluidics device. After a 30-min settling period, biofilms were grown under a constant laminar flow rate of 3 mL/h per channel. Following 48 h of incubation at 30 °C, dense and mature P. aeruginosa PAO1 biofilms were observed, which were then further used for analysis of the imaging probes.
# To circumvent these technical drawbacks, the addition of compounds to the medium reservoir and retention at the biofilm was pursued. Imaging compounds were added to the medium reservoirs at a concentration of 500 nM, which were continuously pumped (3 mL/h) through the flow cell for 4 h. Compound accumulation at mature P. aeruginosa biofilms was immediately analyzed using fluorescence microscopy. Afterwards, the medium was exchanged, and the biofilms were washed for 30 min (3 mL/h, no compound) to monitor the retention (Figure 5). Furthermore, an analysis using CLSM was also performed after 4 h of accumulation without washing (Figures 5 and S22).
# Figure 5 Staining of P. aeruginosa PAO1 biofilms grown under flow conditions with compound supplementation to the medium. Biofilm staining with (A) fluorescein divalent probe 17, (B) fluorescein control 24, (C) BODIPY divalent probe 19, and (D) BDP FL azide control 18 was monitored after 4 h of accumulation under constant flow (3 mL/h) of LB media containing 500 nM of respective compound. Retention of imaging compounds is shown after a subsequent wash period for 30 min with medium (3 mL/h, no compound). Images were recorded by using a fluorescence microscope. CLSM was performed for (E) BODIPY divalent probe 19 and the control (F) BDP FL azide 18 after 4 h of accumulation. Green signal originates from fluorescently labeled probes 17 and 19 and controls 24 and 18. P. aeruginosa constitutively expressing mCherry from pMP7605^56 is shown in red. Z-Stack size, 2 μm. Scale bar = 50 μm.
# In vitro biofilm staining under flow conditions
# The flow cell experiment was set up in analogy to Ghanbari et al. and in this study, optimized and established for biofilm staining.25 In principle, the experiment is based on an inlet connected to a medium source, a peristaltic pump providing constant medium flow, a flow chamber enabling analysis of bacterial growth and an outlet (waste container/bottle).
# The medium used in the flow system was LB diluted by factor 5 containing 60 µg/mL
# Gm. Silicone tubings 1.6 mm (ibidi, Germany) were used transporting medium from inlet to the peristaltic pump (Watson-Marlow Fluid Technology Solutions). Stopper hoses (CarlRoth) placed in peristaltic pump were coupled to silicone tubes via connectors (ibidi, Germany).
# Stopper hoses are connected to bubble traps (obtained by Claus Sternberg, DTU Copenhagen) via 0.8 mm silicone tubing (ibidi, Germany). Bubble traps were used to remove air from the medium flow and to avoid biofilm disruption. Downstream from the bubble traps, the flow cell (μ-Slide VI 0.4 ibiTreat, ibidi, Germany) was placed into the system and connected to 1.6 mm silicone tubes (ibidi, Germany). The outlet is leading the medium from flow chamber to a waste […]
# In order to inoculate the flow cell with P. aeruginosa PAO1 mCherry (pMP7605)23 the silicone tubes upstream and downstream of the flow chamber were pinched off by using commercial plastic clamps. The medium flow was stopped and the flow cell was inoculated by injecting 300 µL of the bacterial suspension (OD600nm of 0.1) into the silicone tubing upstream of the flow chamber. For this, a cannula (0.30 x 12 mm, Sterican) was used. The injection point was sealed with silicone glue. After bacterial settling time of 30 min, the flow was started again and clamps were removed. Growth temperature was regulated by using a heat system (ibidi, […]
# Germany). […]
# [3] = test system: P. aeruginosa PAO (DSM 1707) lung infection; assay: Optical in vivo imaging and ex situ organ analysis in acute P. aeruginosa airway infection model; design: species or system mice
# Experimental: Encouraged by the high affinity of the imaging probes and their ability to stain P. aeruginosa biofilms in vitro, we further investigated the compounds in vivo using an acute P. aeruginosa airway infection model in mice. Intratracheal administration of P. aeruginosa PAO (DSM 1707) results in a local infection that is mainly restricted to the lungs. With the infection dose of 2 × 10^6 cfu/50 μL chosen here, the number of bacteria peaks at 6 h after infection before the host immune system clears the bacteria.[70]
# Then, imaging probes, divalent LecA-targeting probe 21, LecB-targeting probe 22 and the control sulfo-Cy7 (free acid), were administered intravenously to the tail vein 2 h post infection. […] This accumulation in the lungs was then confirmed by a subsequent ex vivo analysis of the organs.
# Figure 6 Optical in vivo imaging in mice and ex situ analysis of organs with P. aeruginosa PAO acute lung infection. In vivo imaging of mice with P. aeruginosa intratracheal infection (right) or uninfected control mice (left) after intravenous administration of imaging probes 2 h post infection: (A) 50 nmol/20 g divalent LecA probe 21 or (B) 100 nmol/20 g LecB probe 22. Then, explanted lungs were analyzed for fluorescence intensity, shown as a false color scale in (C) divalent LecA probe 21 (left: uninfected, right: infected) and (D) LecB probe 22 (left: uninfected; middle: uninfected control without dye; right: infected). (E) Quantification of the average radiant efficiency of the divalent LecA ligand 21 and the control sulfo-Cy7 free acid in the lungs of uninfected and infected mice. Duplicate data points and the mean are depicted. (F) Average radiant efficiency was quantified for the LecB imaging probe 22 in lungs of infected and uninfected mice. In addition, (G) further mouse organs were explanted after i.v. injection of 21 (50 nmol/20 g) or control sulfo-Cy7 free acid (50 nmol/20 g) and imaged. Organs of uninfected (left), infected (right) mice, and uninfected mice without any dye (upper middle on the sulfo-Cy7 free acid rows) were compared. Fluorescence intensities are shown as false color pictures. […]
# Lung infection model and in vivo imaging of P. aeruginosa
# C57BL/6J and albino (Tyrc2J) C57BL/6 mice were bred and housed at the Central Animal Facility, Hannover Medical School, Germany. Animal experiments were performed with permission number: 33.9-42502-04-16/2072 from the Lower Saxony State Office for Consumer Protection and Food Safety (LAVES), Germany. Mice were anesthetized with 3% isoflurane (CP Pharma) and infected intratracheally with 2x10^6 cfu/50 µL of P. aeruginosa PAO (DSM1707, Braunschweig, Germany) as described previously.26
# 50 – 100 nmol sulfo-Cyanine7-compound (divalent LecA probe 21; LecB probe 22; control sulfoCy7 free acid, CAS no.: 2104632-30-4, Lumiprobe; control sulfoCy7 azide, 20, Lumiprobe) per 20 g mouse was injected intravenously 2 h after infection. Optical imaging was performed 4 – 7 h after compound administration. Mice were anesthetized with 3% isoflurane […]
# an in vivo imaging system (IVIS SpectrumCT, PerkinElmer). Subsequently mice were euthanized and organs were imaged (675/760 nm) ex situ individually. To enhance Cyanine7 specific fluorescent signal spectral unmixing was performed on in vivo images using LivingImage 4.7 (PerkinElmer). […]
# T1 sequence (Q05097 whole entry): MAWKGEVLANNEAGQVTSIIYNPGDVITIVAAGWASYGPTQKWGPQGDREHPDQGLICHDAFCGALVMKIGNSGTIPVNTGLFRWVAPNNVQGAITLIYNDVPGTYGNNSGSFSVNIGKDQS
SMILES,Kd (LecA),Staining of biofilm aggregates [1],Biofilm staining after accumulation ([2]; 3 mL/h),Biofilm staining by CLSM after accumulation [2],further results
O=C1OC2(c3ccc(O)cc3Oc3cc(O)ccc32)c2ccc(NC(=S)NCCOCCOCCOCCn3cc(CNc4cccc(S[C@@H]5O[C@H](CO)[C@H](O)[C@H](O)[C@H]5O)c4)nn3)cc21 [compound 2],5.3 ± 0.7 µM,showed staining,–,–,–
O=C1OC2(c3ccc(O)cc3Oc3cc(O)ccc32)c2ccc(NC(=S)NCCOCCOCCOCCn3cc(CNc4ccc(S[C@@H]5O[C@H](CO)[C@H](O)[C@H](O)[C@H]5O)cc4)nn3)cc21 [compound 3],11.6 ± 0.7 µM,showed staining,–,–,–
O=C1OC2(c3ccc(O)cc3Oc3cc(O)ccc32)c2ccc(NC(=S)NCCOCCOCCOCCn3cc(COc4ccc(S[C@@H]5O[C@H](CO)[C@H](O)[C@H](O)[C@H]5O)cc4)nn3)cc21 [compound 4],8.5 ± 0.8 µM,–,–,–,–
"CC1=CC(C)=[N+]2C1=Cc1ccc(CCC(=O)NCCCN=[N+]=[N-])n1[B-]2(F)F [compound 18, BDP FL azide, reference compound]",–,–,did not show any enrichment,no signal was observed,–
CC1=CC(C)=[N+]2C1=Cc1ccc(CCC(=O)NCCCn3cc(CCN(Cc4ccc(NC(=O)CCc5ccc(O[C@@H]6O[C@H](CO)[C@H](O)[C@H](O)[C@H]6O)cc5)cc4)Cc4ccc(NC(=O)CCc5ccc(O[C@@H]6O[C@H](CO)[C@H](O)[C@H](O)[C@H]6O)cc5)cc4)nn3)n1[B-]2(F)F [compound 19],–,–,strong staining was observed,clear and strong staining predominantly at the periphery of large biofilm aggregates,"Retention at biofilm after wash ([2]; after 4 h accumulation at 500 nM, 30 min wash, 3 mL/h, no compound): the strong signal was still observed"
C[C@@H]1O[C@H](CNS(=O)(=O)c2ccc(-c3cn(CCCNC(=O)CCCCC[N+]4=C(/C=C/C5=CC(=C/C=C6/N(C)c7ccc(S(=O)(=O)O)cc7C6(C)C)/CCC5)C(C)(C)c5cc(S(=O)(=O)[O-])ccc54)nn3)s2)[C@@H](O)[C@H](O)[C@@H]1O [compound 22],–,–,–,–,"Average fluorescence radiant efficiency of explanted lungs ([3]; ex vivo analysis of organs, infected vs uninfected mice): elevated compared with uninfected mice; Cyanine7 signal in lung area, optical in vivo imaging ([3]; i.v. 2 h post infection, infected vs uninfected mice, 21 50 nmol/20 g, 22 100 nmol/20 g): elevated Cyanine7 signals in the area of the lung of infected mice compared to uninfected mice; Fluorescence ex vivo in lungs of uninfected animals compared to control sulfo-Cyanine7 (free acid) ([3]; uninfected mice, ex vivo quantification): a certain accumulation in the lungs of uninfected animals"
